Experimental data from publication PMC9794768, “Molecular mechanism of substrate recognition by folate transporter SLC19A1” (Cell Discovery, 2022).

Legend:
[1] = target: T1, SLC19A1 (Homo sapiens, UniProt P41440); assay: FSEC-based thermostability in detergent lysate; [3H]-MTX uptake competition in HEK293F cells at […]; format: cell-based; parameters: GFP-tagged SLC19A1
T1 sequence (P41440 1-591): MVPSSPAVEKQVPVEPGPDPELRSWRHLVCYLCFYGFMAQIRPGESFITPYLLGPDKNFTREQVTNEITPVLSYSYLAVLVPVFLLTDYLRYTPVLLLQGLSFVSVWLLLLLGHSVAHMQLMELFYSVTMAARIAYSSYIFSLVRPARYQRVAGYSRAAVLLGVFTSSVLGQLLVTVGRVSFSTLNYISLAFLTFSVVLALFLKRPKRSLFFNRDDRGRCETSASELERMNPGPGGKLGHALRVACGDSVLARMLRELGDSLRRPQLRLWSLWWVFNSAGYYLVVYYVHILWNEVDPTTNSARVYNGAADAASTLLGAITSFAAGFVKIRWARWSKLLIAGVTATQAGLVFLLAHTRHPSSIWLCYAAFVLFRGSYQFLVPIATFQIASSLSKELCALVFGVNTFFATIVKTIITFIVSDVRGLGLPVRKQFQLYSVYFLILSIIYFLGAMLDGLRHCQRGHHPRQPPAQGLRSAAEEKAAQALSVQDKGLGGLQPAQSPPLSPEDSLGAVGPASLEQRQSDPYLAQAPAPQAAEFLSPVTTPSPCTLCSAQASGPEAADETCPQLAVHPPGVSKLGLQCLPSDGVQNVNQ

[2] = target: T1, SLC19A1; assay: cryo-EM structure at […] Å and MST; also [3H]-MTX uptake inhibition (IC50 […]) and FSEC thermostability; format: binding; parameters: full-length SLC19A1 (MST); BRIL-SLC19A1/Fab/Nb (cryo-EM)
[3] = target: T1, SLC19A1; assay: [3H]-MTX uptake competition in HEK293F cells at […]; FSEC-based thermostability in detergent lysate; format: cell-based; parameters: GFP-tagged SLC19A1

## Nc1nc(=O)c2nc(CNc3ccc(C(=O)N[C@@H](CCC(=O)O)C(=O)O)cc3)cnc2[nH]1 [folate]
[1]
  FSEC-based thermostability in detergent lysate; [3H]-MTX uptake competition in H: the well-documented substrates 5-MTHF and folate significantly enhanced the thermostability of SLC19A1

## Cc1ncc(C[n+]2csc(CCO[P@](=O)(O)OP(=O)(O)O)c2C)c(N)n1 [TPP, thiamine pyrophosphate]
[2]
  Kd: 327 ± 76 µM

## Cc1ncc(C[n+]2csc(CCOP(=O)(O)O)c2C)c(N)n1 [TMP, Thiamine monophosphate]
[3]
  [3H]-MTX uptake competition in HEK293F cells at 200 μM; FSEC-based thermostabili: TMP effectively competed with [^3H]-MTX in the transporter assay and enhanced the thermostability of SLC19A1
